# Data published in US20120029018A1, “9-SUBSTITUTED PHENANTHRENE BASED TYLOPHORINE DERIVATIVES” (priority 2008, published 2012).
# Several values for one entry are separate records, joined by “and”; a condition that tells them apart may be missing. Equal values may be shown once.
# Experiments:
# A549 (lung) = assay: In vitro anticancer activity against A549 cells; format: cell-based, human; details: for IC50 A549: A549 cells
# KB (nasopharyngeal) = assay: In vitro anticancer activity against KB cells; format: cell-based, human; details: for IC50 KB: KB cells
# DU-145 (prostate) = assay: In vitro anticancer activity against DU-145 cells; format: cell-based, human; details: for IC50 DU145: DU145 cells
# [1] = tested on: KB-VIN (an MDR KB subline); assay: In vitro anticancer activity against KB-VIN cells; format: cell-based, human; details: for IC50 KBvin: KBvin cells
# lung cancer cells = assay: Colony formation of lung cancer cells in vitro; format: cell-based; details: FIG. 1, listed as PBT-1
# Excerpt: (§1) The reciprocal recruitment of RelA and RelB on COX-2 promoter region led to the downregulation of transcriptional activity. […] PBT-1 may be a good drug candidate for anticancer chemotherapy.
# [2] = tested on: apoptosis pathway, MAPK signaling, NF-κB pathway, focal adhesion; assay: DNA microarray and pathway analysis; format: cell-based
# Excerpt: as §1
# [3] = tested on: Akt activation, RelA (p65), NF-κB target genes; assay: Akt / NF-κB signaling (gels, FIG. 2); format: cell-based
# Excerpt: as §1
# CL1-0 = assay: Cell cycle distribution in CL1-0 cells; format: cell-based; on G1 (%): test concentration or dose not given here; on G2/M (%): test concentration or dose not given here; on S (%): test concentration or dose not given here
# Excerpt: as §1
# [4] = tested on: panel of human tumor cell lines including KB, A549, DU-145 and KB-VIN; details: four human cancer cell lines including MDR KB-VIN; previous research (refs 6,7); read-out: IC50 against four types of human cancer cell lines; cited from earlier work
# [5] = tested on: cyclin B1 and cyclin D1 protein; assay: Cyclin protein levels; format: cell-based
# Excerpt: as §1
# [6] = tested on: panel of human tumor cell lines including KB, A549, DU-145 and KB-VIN; assay: In vitro anticancer activity, panel as a whole; format: cell-based; details: for IC50 values across the panel: summary of Table 1
structure (smiles),measurement,setting,value
COc1ccc2c(CN3CCCC(CN)C3)cc3cc4c(cc3c2c1)OCO4.Cl.Cl (racemic) [Compound 7],IC50 A549,A549 (lung),0.28 µg/mL
same,IC50 KB,KB (nasopharyngeal),0.33 µg/mL
same,IC50 DU145,DU-145 (prostate),0.37 µg/mL
same,IC50 KBvin,[1],0.38 µg/mL
COc1ccc2c(CN3CCCC(CNC(=O)OC(C)(C)C)C3)cc3cc4c(cc3c2c1)OCO4 (racemic) [Compound 8],IC50 A549,A549 (lung),0.57 µg/mL
same,IC50 KB,KB (nasopharyngeal),0.53 µg/mL
same,IC50 DU145,DU-145 (prostate),0.52 µg/mL
same,IC50 KBvin,[1],0.62 µg/mL
COC(=O)C1CN(Cc2cc3cc4c(cc3c3cc(OC)ccc23)OCO4)CCC1=O (racemic) [Compound 16],IC50 A549,A549 (lung),0.58 µg/mL
same,IC50 KB,KB (nasopharyngeal),0.53 µg/mL
same,IC50 DU145,DU-145 (prostate),0.78 µg/mL
same,IC50 KBvin,[1],0.83 µg/mL
COc1ccc2c(CN3CCC(CO)CC3)cc3cc4c(cc3c2c1)OCO4 [Compound 1],IC50,"A549 (lung); Homo sapiens, A549, read-out: IC50 A549",0.07 µg/mL
same,IC50,"KB (nasopharyngeal); Homo sapiens, KB, read-out: IC50 KB",0.07 µg/mL
same,colony formation of lung cancer cells,lung cancer cells,significantly suppressed colony formation
same,IC50,"DU-145 (prostate); Homo sapiens, DU-145, read-out: IC50 DU145",0.09 µg/mL
same,IC50,"[1]; Homo sapiens, KBVIN, read-out: IC50 KBvin",0.08 µg/mL
same,pathways activated,[2],activated the apoptosis pathway and mitogen-activated protein kinase signaling
same,pathways suppressed,[2],suppressed the nuclear factor kappaB (NF-κB) pathway and focal adhesion
same,Akt activation,[3],suppress Akt activation
same,expressions of NF-κB target genes,[3],downregulate the expressions of NF-κB target genes
same,RelA (p65) degradation,[3]; via IκB kinase-α,accelerate RelA (p65) degradation
same,G1 (%),"CL1-0; CL1-0, 2 Hr.",53.7%
same,G2/M (%),"CL1-0; CL1-0, 2 Hr.",25.4%
same,S (%),"CL1-0; CL1-0, 2 Hr.",15.1%
same,G1 (%),"CL1-0; CL1-0, 6 Hr.",52.5%
same,G2/M (%),"CL1-0; CL1-0, 6 Hr.",24.3%
same,S (%),"CL1-0; CL1-0, 6 Hr.",15.8%
same,G1 (%),"CL1-0; CL1-0, 12 Hr.",41.7%
same,G2/M (%),"CL1-0; CL1-0, 12 Hr.",27.0%
same,S (%),"CL1-0; CL1-0, 12 Hr.",23.9%
same,G1 (%),"CL1-0; CL1-0, 16 Hr.",20.4%
same,G2/M (%),"CL1-0; CL1-0, 16 Hr.",33.6%
same,S (%),"CL1-0; CL1-0, 16 Hr.",34.1%
same,G1 (%),"CL1-0; CL1-0, 24 Hr.",16.6%
same,G2/M (%),"CL1-0; CL1-0, 24 Hr.",20.9%
same,S (%),"CL1-0; CL1-0, 24 Hr.",43.8%
same,cell cycle arrest and apoptosis,CL1-0; Table 2,induced cell cycle G2/M arrest and apoptosis
same,IC50,[4],~80 nM
same,cyclin B1 and cyclin D1 protein level,[5],accumulation in dose- and time-dependent manners
COc1ccc2c(CN3CCCC(NC(=O)OC(C)(C)C)C3)cc3cc4c(cc3c2c1)OCO4 (stereo not drawn) [Compound 9],IC50 A549,A549 (lung),6.77 µg/mL
same,IC50 KB,KB (nasopharyngeal),6.43 µg/mL
same,IC50 DU145,DU-145 (prostate),8.00 µg/mL
same,IC50 KBvin,[1],8.40 µg/mL
COc1ccc2c(CN3CCCC(N)C3)cc3cc4c(cc3c2c1)OCO4.Cl.Cl (stereo not drawn) [Compound 10],IC50 A549,A549 (lung),3.85 µg/mL
same,IC50 KB,KB (nasopharyngeal),3.80 µg/mL
same,IC50 DU145,DU-145 (prostate),4.20 µg/mL
same,IC50 KBvin,[1],3.88 µg/mL
COc1ccc2c(CN3CCC(NC(=O)OC(C)(C)C)CC3)cc3cc4c(cc3c2c1)OCO4 [Compound 11],IC50 A549,A549 (lung),0.41 µg/mL
same,IC50 KB,KB (nasopharyngeal),0.40 µg/mL
same,IC50 DU145,DU-145 (prostate),0.43 µg/mL
same,IC50 KBvin,[1],0.49 µg/mL
COc1ccc2c(CN3CCC(N)CC3)cc3cc4c(cc3c2c1)OCO4.Cl.Cl [Compound 12],IC50 A549,A549 (lung),0.16 µg/mL
same,IC50 KB,KB (nasopharyngeal),0.24 µg/mL
same,IC50 DU145,DU-145 (prostate),0.34 µg/mL
same,IC50 KBvin,[1],0.29 µg/mL
COc1ccc2c(CN3CCC(C(F)(F)F)CC3)cc3cc4c(cc3c2c1)OCO4 [Compound 13],IC50 A549,A549 (lung),2.74 µg/mL
same,IC50 KB,KB (nasopharyngeal),3.88 µg/mL
same,IC50 DU145,DU-145 (prostate),5.24 µg/mL
same,IC50 KBvin,[1],3.12 µg/mL
COc1ccc2c(CN3CCC(C#N)CC3)cc3cc4c(cc3c2c1)OCO4 [Compound 14],IC50 A549,A549 (lung),0.33 µg/mL
same,IC50 KB,KB (nasopharyngeal),0.42 µg/mL
same,IC50 DU145,DU-145 (prostate),0.41 µg/mL
same,IC50 KBvin,[1],0.43 µg/mL
COc1ccc2c(CN3CCC(=O)CC3)cc3cc4c(cc3c2c1)OCO4 [Compound 15],IC50 A549,A549 (lung),0.04 µg/mL
same,IC50 KB,KB (nasopharyngeal),0.04 µg/mL
same,IC50 DU145,DU-145 (prostate),0.04 µg/mL
same,IC50 KBvin,[1],0.05 µg/mL
same,IC50 values across the panel,[6],~0.04 µg/mL
COc1ccc2c(CN3CCC(NS(C)(=O)=O)CC3)cc3cc4c(cc3c2c1)OCO4 [Compound 17],IC50 A549,A549 (lung),0.45 µg/mL
same,IC50 KB,KB (nasopharyngeal),0.29 µg/mL
same,IC50 DU145,DU-145 (prostate),0.45 µg/mL
same,IC50 KBvin,[1],0.48 µg/mL
COC(=O)C1CCCN(Cc2cc3cc4c(cc3c3cc(OC)ccc23)OCO4)C1 (stereo not drawn) [Compound 18],IC50 A549,A549 (lung),0.76 µg/mL
same,IC50 KB,KB (nasopharyngeal),0.79 µg/mL
same,IC50 DU145,DU-145 (prostate),1.09 µg/mL
same,IC50 KBvin,[1],1.24 µg/mL
COC(=O)C1CCCN(Cc2cc3cc4c(cc3c3cc(OC)ccc23)OCO4)C1 (stereo not drawn) [Compound 19],IC50 A549,A549 (lung),0.53 µg/mL
same,IC50 KB,KB (nasopharyngeal),0.53 µg/mL
same,IC50 DU145,DU-145 (prostate),0.61 µg/mL
same,IC50 KBvin,[1],0.58 µg/mL
COc1ccc2c(CN3CCC(CN)CC3)cc3cc4c(cc3c2c1)OCO4.Cl.Cl [Compound 20],IC50 A549,A549 (lung),0.22 µg/mL
same,IC50 KB,KB (nasopharyngeal),0.12 µg/mL
same,IC50 DU145,DU-145 (prostate),0.16 µg/mL
COc1ccc2c(CN3CCC(O)CC3)cc3cc4c(cc3c2c1)OCO4 [Compound 21],IC50 A549,A549 (lung),0.03 µg/mL
same,IC50 KB,KB (nasopharyngeal),0.03 µg/mL
same,IC50 DU145,DU-145 (prostate),0.04 µg/mL
same,IC50 values across the panel,[6],~0.04 µg/mL and 0.03 to 0.04 µg/mL
same,fold more active compared with compound 1,[6]; vs compound 1,about 2 fold
COc1ccc2c(CN3CCCC(=O)C3)cc3cc4c(cc3c2c1)OCO4 [Compound 22],IC50 A549,A549 (lung),0.29 µg/mL
same,IC50 KB,KB (nasopharyngeal),0.30 µg/mL
same,IC50 DU145,DU-145 (prostate),0.39 µg/mL
same,"decrease of inhibitory potency, oxo group at C-3′ (15 vs. 22)",[6]; vs compound 15,about 8 fold
COc1ccc2c(CN3CCCC(CO)C3)cc3cc4c(cc3c2c1)OCO4 (stereo not drawn) [Compound 23],IC50 A549,A549 (lung),0.05 µg/mL
same,IC50 KB,KB (nasopharyngeal),0.07 µg/mL
same,IC50 DU145,DU-145 (prostate),0.06 µg/mL
COc1ccc2c(CN3CCCC(CO)C3)cc3cc4c(cc3c2c1)OCO4 (stereo not drawn) [Compound 24],IC50 A549,A549 (lung),0.07 µg/mL
same,IC50 KB,KB (nasopharyngeal),0.07 µg/mL
same,IC50 DU145,DU-145 (prostate),0.10 µg/mL
COc1ccc2c(CN3CCC(CNC(=O)OC(C)(C)C)CC3)cc3cc4c(cc3c2c1)OCO4 [Compound 25],IC50 A549,A549 (lung),0.27 µg/mL
same,IC50 KB,KB (nasopharyngeal),0.43 µg/mL
same,IC50 DU145,DU-145 (prostate),0.40 µg/mL
